The subject of assay [1] is rhinovirus B14. Briefly: Cytotoxic activity against HRV-14 in cell culture. Conditions: Rhinovirus B. The assay is classed as functional, rhinovirus 14.
Assay [2] concerns the target T1, Human rhinovirus A protease (Human rhinovirus sp.) (UniProt Q4U254).
T1 sequence (whole entry): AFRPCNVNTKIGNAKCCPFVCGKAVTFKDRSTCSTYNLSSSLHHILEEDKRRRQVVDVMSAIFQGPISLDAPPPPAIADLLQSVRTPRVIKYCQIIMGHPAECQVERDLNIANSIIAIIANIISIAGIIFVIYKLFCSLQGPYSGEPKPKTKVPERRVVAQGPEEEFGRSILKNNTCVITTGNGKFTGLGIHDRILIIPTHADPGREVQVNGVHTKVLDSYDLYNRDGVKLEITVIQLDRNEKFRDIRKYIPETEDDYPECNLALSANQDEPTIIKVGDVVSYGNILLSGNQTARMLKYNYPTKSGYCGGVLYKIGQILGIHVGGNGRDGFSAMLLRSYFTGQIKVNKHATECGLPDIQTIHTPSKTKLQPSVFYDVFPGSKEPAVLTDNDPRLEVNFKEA
The assay is described as follows: Binding affinity on human Rhinovirus 3C protease (rhinovirus serotype 14).

Assay [3] has as its system rhinovirus B14. The assay is described as follows: Antiviral activity against HRV-14 in cell culture. Format: functional, organism-based. Conditions: Rhinovirus B.

Some results are limits rather than exact numbers.

Regarding `CCOC(=O)/C=C/[C@H](CCC(N)=O)NC(=O)[C@H](Cc1ccccc1)NC(=O)[C@H](CCN1CCOCC1)NC(=O)OCc1ccccc1`, the 50% cytotoxic concentration (CC50) (as a rule, the concentration giving 50% cytotoxicity) in assay [1] was over 100 µM. This compound also displayed a K obs / 1 in assay [2] of 35000 M⁻¹ s⁻¹. Besides, a half-maximal response in assay [3] (EC50) required 5.1 µM.
The corresponding values for `CCOC(=O)/C=C/[C@H](CCC(C)=O)NC(=O)[C@H](Cc1ccccc1)NC(=O)[C@H](CC(C)C)NC(=O)OCc1ccccc1` are over 100 µM, 1400 M⁻¹ s⁻¹ and 1.6 µM.
For `CCOC(=O)/C=C/[C@H](CCC(N)=O)NC(=O)[C@H](Cc1ccccc1)NC(=O)[C@H](CC(C)C)NC(=O)C1CCCC1`, in that order: over 320 µM, 23700 M⁻¹ s⁻¹ and 0.6 µM.
The corresponding values for `CCOC(=O)/C=C/[C@H](CCC(N)=O)NC(=O)[C@H](Cc1ccccc1)NC(=O)OCc1ccccc1` are over 100 µM, 400 M⁻¹ s⁻¹ and 5.6 µM.
`CCOC(=O)/C=C/[C@H](CCC(N)=O)NC(=O)[C@H](Cc1ccccc1)NC(=O)[C@H](CC(C)C)NC(=O)N(C)Cc1ccccc1` registered a 50% cytotoxic concentration (CC50) in assay [1] of over 100 µM. The same compound had a K obs / 1 in assay [2] of 3200 M⁻¹ s⁻¹. The midpoint of the response in assay [3], the EC50, lay at 5.6 µM.
As for `CCOC(=O)/C=C/[C@H](CCC(N)=O)NC(=O)[C@H](CC(C)C)NC(=O)[C@H](CC(C)C)NC(=O)OCc1ccccc1`, the CC50 in assay [1] is over 320 µM. This compound also displayed a K obs / 1 in assay [2] of 2300 M⁻¹ s⁻¹. Further, a half-maximal response in assay [3] (EC50) required 5.4 µM.
The corresponding values for `CCOC(=O)/C=C/[C@H](CCC(N)=O)NC(=O)[C@H](Cc1ccccc1)NC(=O)[C@H](CCC(=O)O)NC(=O)OCc1ccccc1` are over 320 µM, 78900 M⁻¹ s⁻¹ and 5.5 µM.
In assay [1], `CCOC(=O)/C=C/[C@H](CCC(N)=O)NC(=O)C(NC(=O)[C@H](CC(C)C)NC(=O)OCc1ccccc1)[C@H](C)O` (stereo partly specified) gave a CC50 of over 320 µM. The K obs / 1 in assay [2] came out at 1800 M⁻¹ s⁻¹. In addition, the EC50 (commonly the concentration needed to bring the measured effect to its halfway point) in assay [3] was 56 µM.
In assay [1], `CCOC(=O)/C=C/[C@H](CCC(N)=O)NC(=O)[C@H](Cc1ccccc1)NC(=O)[C@H](CCCN1CCOCC1)NC(=O)OCc1ccccc1` registered a 50% cytotoxic concentration (CC50) of over 100 µM. The same compound returned a K obs / 1 in assay [2] of 43300 M⁻¹ s⁻¹. Besides, in assay [3], the half-maximal effective concentration (EC50) was determined as 7.1 µM.
The corresponding values for `CCOC(=O)/C=C/[C@H](CCC(=O)O)NC(=O)[C@H](Cc1ccccc1)NC(=O)[C@H](CC(C)C)NC(=O)OCc1ccccc1` are over 100 µM, 500 M⁻¹ s⁻¹ and 14 µM.
`CCOC(=O)/C=C/[C@H](CCC(=O)NC)NC(=O)[C@H](Cc1ccccc1)NC(=O)[C@H](CC(C)C)NC(=O)OCc1ccccc1`: the 50% cytotoxic concentration (CC50) in assay [1] is over 100 µM. The compound further gave a K obs / 1 in assay [2] of 750 M⁻¹ s⁻¹. Besides, a half-maximal response in assay [3] (EC50) required 5.6 µM.
The corresponding values for `CCOC(=O)/C=C/[C@H](CCC(=O)N(C)C)NC(=O)[C@H](Cc1ccccc1)NC(=O)[C@H](CC(C)C)NC(=O)OCc1ccccc1` are over 100 µM, 60 M⁻¹ s⁻¹ and 4 µM.
As to `CCOC(=O)/C=C/[C@H](CCC(N)=O)NC(=O)[C@H](Cc1ccccc1)NC(=O)[C@H](CSC)NC(=O)OCc1ccccc1`, in assay [1], the CC50 is over 100 µM. This compound also registered a K obs / 1 in assay [2] of 35200 M⁻¹ s⁻¹. Also, the EC50 in assay [3] stood at 0.18 µM.
The corresponding values for `CCOC(=O)/C=C/[C@H](CCC(N)=O)NC(=O)[C@H](Cc1ccccc1)NC(=O)[C@H](CCSC)NC(=O)OCc1ccccc1` are over 100 µM, 46200 M⁻¹ s⁻¹ and 1.4 µM.
On to `CCOC(=O)/C=C/[C@H](CCC(N)=O)NC(=O)[C@H](Cc1ccccc1)NC(=O)[C@@H](NC(=O)OCc1ccccc1)C1CCCCC1`, for which the CC50 in assay [1] is over 100 µM. The compound also displayed a K obs / 1 in assay [2] of 36200 M⁻¹ s⁻¹. This compound also showed an EC50 in assay [3] of 1 µM.
For the compound `CCOC(=O)/C=C/[C@H](CCC(C)O)NC(=O)[C@H](Cc1ccccc1)NC(=O)[C@H](CC(C)C)NC(=O)OCc1ccccc1` (stereo partly specified), in assay [1], the CC50 is over 100 µM. Moreover, in assay [2], the K obs / 1 amounted to 0 M⁻¹ s⁻¹. The compound also displayed an EC50 in assay [3] of over 100 µM.
For the compound `CCOC(=O)/C=C/[C@H](CCC(N)=O)NC(=O)[C@H](Cc1ccccc1)NC(=O)[C@H](CSc1ccccc1)NC(=O)OCc1ccccc1`, the half-maximal cytotoxic concentration (CC50) in assay [1] was over 320 µM. In addition, the K obs / 1 in assay [2] was found to be 141000 M⁻¹ s⁻¹. The compound further yielded an EC50 in assay [3] of 0.12 µM.

Values taken from ChEMBL document CHEMBL1131037, “Structure-based design, synthesis, and biological evaluation of irreversible human rhinovirus 3C protease inhibitors. 2. Peptide structure-activity studies” (J Med Chem, 1998).
